From BindingDB's records for doi:10.1016/s0028-3908(97)00039-7 (Roche Bioscience, 1997)
Several values for one entry are separate records, joined by “and”; a condition that tells them apart may be missing. Equal values may be shown once.

These molecules were tested against 5-hydroxytryptamine receptor 4 (Rattus norvegicus, UniProt Q62758).
5-hydroxytryptamine receptor 4, sequence (Q62758 whole entry): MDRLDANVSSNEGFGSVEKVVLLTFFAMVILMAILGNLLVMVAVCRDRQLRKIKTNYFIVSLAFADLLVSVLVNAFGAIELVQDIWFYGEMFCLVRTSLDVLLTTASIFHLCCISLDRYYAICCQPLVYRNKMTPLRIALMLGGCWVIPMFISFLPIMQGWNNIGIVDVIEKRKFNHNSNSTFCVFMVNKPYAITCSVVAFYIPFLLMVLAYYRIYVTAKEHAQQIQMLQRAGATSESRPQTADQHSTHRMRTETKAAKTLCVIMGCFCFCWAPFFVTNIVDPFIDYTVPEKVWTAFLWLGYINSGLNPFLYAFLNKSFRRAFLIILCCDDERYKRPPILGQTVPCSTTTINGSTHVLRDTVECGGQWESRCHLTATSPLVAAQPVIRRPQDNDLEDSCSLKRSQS
With `CN1C2CCC1CC(OC(=O)c1c[nH]c3ccccc13)C2` (stereo not drawn) the Ki was 100 nM and 251 nM and 501 nM.
For `CC(C)n1c(=O)n(C(=O)NC2CC3CCC(C2)N3C)c2ccccc21` (stereo not drawn) [BIMU 8], the Ki was 15.8 nM and 50.1 nM and 79.4 nM.
`CCCCN1CCC(COC(=O)c2cc(Cl)c(N)c3c2OCCO3)CC1` [CAS_121881] was tested, and the Ki was 1.25 nM and 0.39 nM and 0.31 nM.
In the case of `NCCc1c[nH]c2ccc(C(N)=O)cc12` [[3H]-5-carboxamidotryptamine], the Ki is reported as 3160 nM and 5010 nM.
For `Cn1cc(C(=O)OCC2CCN(CCNS(C)(=O)=O)CC2)c2ccccc21` [GR 113808], the Ki was 3.16 nM and 1.99 nM and 3.98 nM.
`COc1ccc2[nH]c(=O)n(C(=O)OC3CC4CCC(C3)N4C)c2c1` (stereo not drawn) [DAU 6285] was tested, and the Ki was 79.4 nM and 63.1 nM and 158 nM.
With `CCN(CC)CCOC(=O)c1cc(Cl)c(N)cc1OC` [SDZ-205557] the Ki was 19.9 nM and 25.1 nM.
`COc1cc(N)c(Cl)cc1C(=O)OCC1CCN(CCc2ccc3c(c2)OCCO3)CC1` [RS 57639] was tested, and the Ki was 2.51 nM and 1.25 nM.
